Assay [1] has as its target 72 kDa type IV collagenase (Homo sapiens, UniProt P08253). Briefly: Binding affinity to MMP2.
A further assay has as its target Stromelysin-1 (Homo sapiens, UniProt P08254). Put plainly: Binding affinity to MMP3.
The next assay has as its target T1, Matrilysin (Homo sapiens, UniProt P09237).
T1 sequence (P09237 whole entry): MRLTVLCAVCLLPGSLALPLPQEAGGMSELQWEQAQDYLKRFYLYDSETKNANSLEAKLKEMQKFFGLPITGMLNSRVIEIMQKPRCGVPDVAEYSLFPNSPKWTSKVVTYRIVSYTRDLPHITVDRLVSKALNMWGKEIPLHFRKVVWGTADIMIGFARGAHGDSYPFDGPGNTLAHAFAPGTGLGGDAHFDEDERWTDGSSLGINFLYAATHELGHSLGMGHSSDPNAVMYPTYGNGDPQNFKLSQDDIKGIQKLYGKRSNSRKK
Put plainly: Binding affinity to MMP7.

Assay [2] has as its target Macrophage metalloelastase (Homo sapiens, UniProt P39900). Put plainly: Binding affinity to MMP12.
The target in a further assay is Collagenase 3 (Homo sapiens, UniProt P45452). Briefly: Binding affinity to MMP13.
For a further assay, the target named is T2, Interstitial collagenase (Homo sapiens, UniProt P03956).
T2 sequence (P03956 whole entry): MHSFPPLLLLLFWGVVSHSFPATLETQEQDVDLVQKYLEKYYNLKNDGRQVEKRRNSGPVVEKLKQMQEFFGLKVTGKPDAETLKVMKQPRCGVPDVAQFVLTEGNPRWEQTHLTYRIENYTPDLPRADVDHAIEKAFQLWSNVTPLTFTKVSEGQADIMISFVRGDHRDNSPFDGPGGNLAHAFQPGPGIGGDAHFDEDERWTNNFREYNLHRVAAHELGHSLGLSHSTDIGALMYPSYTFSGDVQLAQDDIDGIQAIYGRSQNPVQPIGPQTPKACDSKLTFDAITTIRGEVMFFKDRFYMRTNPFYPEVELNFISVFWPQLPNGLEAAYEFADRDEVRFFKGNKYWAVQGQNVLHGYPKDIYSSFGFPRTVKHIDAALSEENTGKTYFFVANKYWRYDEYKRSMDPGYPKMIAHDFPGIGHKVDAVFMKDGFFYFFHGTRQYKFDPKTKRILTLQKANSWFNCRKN
Briefly: Binding affinity to MMP1.

For assay [3], the target named is Matrix metalloproteinase-9 (Homo sapiens, UniProt P14780). Briefly: Binding affinity to MMP9.

Each structure is given as a SMILES string.

Chain of Stromelysin-1 (P08254 whole entry): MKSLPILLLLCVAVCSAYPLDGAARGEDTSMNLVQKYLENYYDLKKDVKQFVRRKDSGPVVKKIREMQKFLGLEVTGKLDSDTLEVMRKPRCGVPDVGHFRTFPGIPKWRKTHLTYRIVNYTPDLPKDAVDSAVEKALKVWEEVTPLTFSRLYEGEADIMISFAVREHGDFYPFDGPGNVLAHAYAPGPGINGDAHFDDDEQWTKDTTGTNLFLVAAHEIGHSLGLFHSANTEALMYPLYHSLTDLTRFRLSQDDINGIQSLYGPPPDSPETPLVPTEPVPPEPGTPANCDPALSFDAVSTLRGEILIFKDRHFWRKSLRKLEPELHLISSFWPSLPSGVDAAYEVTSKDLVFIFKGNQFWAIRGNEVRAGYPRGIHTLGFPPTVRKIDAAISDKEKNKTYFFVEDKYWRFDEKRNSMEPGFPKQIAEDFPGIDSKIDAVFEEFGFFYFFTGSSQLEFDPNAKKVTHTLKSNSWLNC
Chain of Matrix metalloproteinase-9 (P14780 whole entry): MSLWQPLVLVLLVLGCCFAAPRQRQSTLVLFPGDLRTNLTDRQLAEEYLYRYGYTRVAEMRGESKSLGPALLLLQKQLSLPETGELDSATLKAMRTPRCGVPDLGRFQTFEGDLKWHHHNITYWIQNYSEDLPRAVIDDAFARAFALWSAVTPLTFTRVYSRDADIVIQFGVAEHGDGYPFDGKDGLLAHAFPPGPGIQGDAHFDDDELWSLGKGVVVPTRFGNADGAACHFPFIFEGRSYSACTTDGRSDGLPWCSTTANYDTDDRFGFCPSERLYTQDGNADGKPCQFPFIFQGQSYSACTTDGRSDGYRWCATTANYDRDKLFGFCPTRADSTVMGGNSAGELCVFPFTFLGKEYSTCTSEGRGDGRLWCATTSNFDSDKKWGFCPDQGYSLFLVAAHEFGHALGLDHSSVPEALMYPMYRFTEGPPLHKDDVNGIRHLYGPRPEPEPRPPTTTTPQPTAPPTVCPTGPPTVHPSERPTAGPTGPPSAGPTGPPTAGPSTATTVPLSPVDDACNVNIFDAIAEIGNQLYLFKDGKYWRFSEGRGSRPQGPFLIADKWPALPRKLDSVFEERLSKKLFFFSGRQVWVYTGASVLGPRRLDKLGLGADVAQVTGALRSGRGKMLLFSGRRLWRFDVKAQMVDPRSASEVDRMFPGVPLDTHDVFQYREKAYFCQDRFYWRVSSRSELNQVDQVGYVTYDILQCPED
Chain of Macrophage metalloelastase (P39900 whole entry): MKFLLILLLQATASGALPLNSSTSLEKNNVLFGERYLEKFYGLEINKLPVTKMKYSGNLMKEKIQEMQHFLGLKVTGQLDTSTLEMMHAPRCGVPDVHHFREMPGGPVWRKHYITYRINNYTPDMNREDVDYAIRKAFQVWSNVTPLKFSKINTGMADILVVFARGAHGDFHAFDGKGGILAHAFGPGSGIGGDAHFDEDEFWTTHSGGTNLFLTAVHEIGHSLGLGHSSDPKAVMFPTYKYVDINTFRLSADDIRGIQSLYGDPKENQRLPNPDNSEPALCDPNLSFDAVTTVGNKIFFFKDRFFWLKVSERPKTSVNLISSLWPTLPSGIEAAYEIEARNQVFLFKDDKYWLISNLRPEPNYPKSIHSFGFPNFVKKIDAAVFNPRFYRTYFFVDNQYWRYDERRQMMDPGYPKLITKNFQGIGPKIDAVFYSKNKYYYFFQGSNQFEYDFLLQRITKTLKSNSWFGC
Chain of 72 kDa type IV collagenase (P08253 whole entry): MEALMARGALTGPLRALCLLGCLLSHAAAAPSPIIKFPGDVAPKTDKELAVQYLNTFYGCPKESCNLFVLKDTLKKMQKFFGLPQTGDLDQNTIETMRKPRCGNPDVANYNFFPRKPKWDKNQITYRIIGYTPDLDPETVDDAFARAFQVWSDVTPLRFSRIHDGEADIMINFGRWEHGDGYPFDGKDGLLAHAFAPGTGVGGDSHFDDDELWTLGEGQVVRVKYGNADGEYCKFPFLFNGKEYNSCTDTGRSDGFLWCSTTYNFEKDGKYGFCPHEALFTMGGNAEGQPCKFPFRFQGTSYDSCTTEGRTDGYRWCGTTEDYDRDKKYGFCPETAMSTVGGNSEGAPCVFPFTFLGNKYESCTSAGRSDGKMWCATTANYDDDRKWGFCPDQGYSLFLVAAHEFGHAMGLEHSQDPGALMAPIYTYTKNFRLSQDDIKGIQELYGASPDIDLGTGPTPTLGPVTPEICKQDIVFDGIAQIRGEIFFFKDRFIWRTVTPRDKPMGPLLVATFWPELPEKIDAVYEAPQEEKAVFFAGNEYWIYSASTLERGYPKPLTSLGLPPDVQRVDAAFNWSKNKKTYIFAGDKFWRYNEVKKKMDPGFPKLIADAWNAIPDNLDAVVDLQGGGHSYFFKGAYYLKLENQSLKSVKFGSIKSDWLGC

In general, Ki refers to the dissociation constant of the complex between target and ligand, obtained from inhibition or displacement. Read a high Ki as a looser hold on the target. For the compound `Cc1cc(COc2ccc(C(=O)Nc3ccccc3Cc3c[nH]c(=O)[nH]3)cc2)c2ccccc2n1`, the inhibitory constant (Ki) is more than 3.33 µM in assay [1]; more than 4.5 µM at Stromelysin-1; more than 6.37 µM at Matrilysin; more than 6.02 µM in assay [2]; more than 5.03 µM on Collagenase 3.

`Cc1cc(COc2ccc(S(=O)(=O)NCc3n[nH]c(=O)[nH]3)cc2)c2ccccc2n1`: the Ki in assay [1] was 2.47 µM; on Stromelysin-1, 0.567 µM; on Matrilysin it was 1 µM; in assay [2] it was 4.12 µM; on Collagenase 3 it was more than 5.03 µM.

Consider `Cc1cc(COc2ccc(C(=O)N[C@H]3CN(C(=O)OC(C)(C)C)C[C@@H]3c3n[nH]c(=O)[nH]3)cc2)c2ccccc2n1`, for which the inhibition constant Ki in assay [1] was more than 3.33 µM; in assay [2] it was more than 5.03 µM; on Interstitial collagenase, more than 4.95 µM; in assay [3], more than 2.13 µM.

In the case of `Cc1cc(COc2ccc(C(=O)NCc3n[nH]c(=O)[nH]3)cc2)c2ccccc2n1`, the Ki in assay [1] is more than 3.33 µM; in assay [2], more than 5.03 µM; at Interstitial collagenase, more than 4.95 µM; in assay [3], more than 2.13 µM.

On to `Cc1cc(COc2ccc(S(=O)(=O)NCC3(C)NC(=O)NC3=O)cc2)c2ccccc2n1` (stereo unspecified), for which the inhibition constant (Ki) in assay [1] was more than 3.33 µM; in assay [2] it was more than 5.03 µM; on Interstitial collagenase, more than 4.95 µM; in assay [3], more than 2.13 µM.

As to `Cc1cc(COc2ccc(C(=O)Nc3ccccc3C(=O)c3c[nH]c(=O)[nH]3)cc2)c2ccccc2n1`, the inhibition constant Ki was more than 3.33 µM in assay [1]; more than 4.5 µM on Stromelysin-1; more than 6.37 µM at Matrilysin; more than 6.02 µM in assay [2]; 4.31 µM on Collagenase 3.

Consider `Cc1cc(COc2ccc(C(=O)Nc3ccccc3C3NC(=O)NC3=O)cc2)c2ccccc2n1` (stereo unspecified), for which the Ki is more than 3.33 µM in assay [1]; more than 4.5 µM at Stromelysin-1; more than 6.37 µM on Matrilysin; 0.782 µM in assay [2]; more than 5.03 µM at Collagenase 3.

Take `Cc1cc(COc2ccc(C(=O)Nc3ccccc3Cc3n[nH]c(=O)[nH]3)cc2)c2ccccc2n1`: the Ki in assay [1] is more than 3.33 µM; at Stromelysin-1, more than 4.5 µM; at Matrilysin it was more than 6.37 µM; in assay [2], 3.61 µM; at Collagenase 3, 4.31 µM.

On to `Cc1cc(COc2ccc(C(=O)NCC3(C)NC(=O)NC3=O)cc2)c2ccccc2n1` (stereo unspecified), for which the Ki was more than 3.33 µM in assay [1], more than 5.03 µM in assay [2], more than 4.95 µM on Interstitial collagenase and more than 2.13 µM in assay [3].
